Data reported in patent publication US8673586B2, “Compounds that interact with kinases” (Alchemia Limited, priority 2002, dated 2014).
Where two headings read alike, the source gives them in different places.

What was measured:
[1] = target: MSK-1 (Homo sapiens, UniProt O75582); details: cited from earlier work
[2] = target: PRK2 (Homo sapiens, UniProt Q16513); details: inhibitor concentration 20 μM; cited from earlier work
[3] = target: S6K1 (Homo sapiens, UniProt P23443); details: cited from earlier work
S6K1, sequence (P23443 whole entry, species assumed): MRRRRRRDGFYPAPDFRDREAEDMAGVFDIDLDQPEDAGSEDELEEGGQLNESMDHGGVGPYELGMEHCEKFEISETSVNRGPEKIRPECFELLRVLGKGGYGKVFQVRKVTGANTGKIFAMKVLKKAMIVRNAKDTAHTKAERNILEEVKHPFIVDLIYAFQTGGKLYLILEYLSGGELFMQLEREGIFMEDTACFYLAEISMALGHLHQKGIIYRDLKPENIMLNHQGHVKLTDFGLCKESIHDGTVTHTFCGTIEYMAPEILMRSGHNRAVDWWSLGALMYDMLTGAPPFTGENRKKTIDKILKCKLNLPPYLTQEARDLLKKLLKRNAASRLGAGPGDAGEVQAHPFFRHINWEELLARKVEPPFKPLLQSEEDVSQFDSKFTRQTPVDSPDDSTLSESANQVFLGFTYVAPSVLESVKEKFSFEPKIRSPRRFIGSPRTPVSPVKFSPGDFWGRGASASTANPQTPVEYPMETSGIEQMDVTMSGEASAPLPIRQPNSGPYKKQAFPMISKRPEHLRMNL

[4] = target: CDK2 (Homo sapiens, UniProt P24941); details: inhibitor concentration 10 μM; cited from earlier work
[5] = test system: CK1; details: inhibitor concentration 10 μM; cited from earlier work
[6] = target: MKK1 (Homo sapiens, UniProt Q02750); details: inhibitor concentration 10 μM; cited from earlier work
[7] = target: SAPK2a (Homo sapiens, UniProt Q16539); details: inhibitor concentration 10 μM; cited from earlier work
[8] = target: EGF-R (Homo sapiens, UniProt P00533); experiment: EGF-R kinase assay, 33P-ATP incorporation, residual activity; format: biochemical; details: tested at 25 micromolar
Method: (§1) Compounds were tested in vitro as follows.
(§2) Recombinant protein kinases, which were expressed as fusion proteins in SF9 insect cells or E. coli, were used for all in vitro assays. The purity and identity of each kinase was checked by SDS-PAGE/silver staining and by western blot analysis with specific antibodies.
(§3) All kinase assays except for p38a (see below) were performed in 96-well micro-titre plates. The assay components included assay buffer, ATP, test compound, enzyme and substrate.
(§4) The assay for all enzymes (except for the PKC see below, contained 60 mM HEPES-NaOH, pH 7.5, 3 mM MgCl2, 3 mM MnCl2, 3 μM Na-orthovanadate, 1 mM […], 0.1 μM [γ-^33P]-ATP (approx. 5×10^5 cpm per well).
(§5) The reaction cocktails were incubated at 30° C. for 80 minutes. The reaction was stopped with 50 μl of 2% (v/v) H3PO4, plates were aspirated and washed twice with 200 μl of H2O or 0.9% (w/v) NaCl. Incorporation of ^33Pi was determined with a microplate scintillation counter.
(§6) All data is presented as residual activity, which is the activity of the enzyme in the presence of the stipulated concentration of inhibitor or compound. 100% activity is the maximum activity of the enzyme in the absence of any inhibitor or compound.
(§7) In all experiments the Z′ value was calculated according to Zhang et al to (J-H Zhang, T. D. Y Chung, K. R. Oldenburg (1999) Journal of Biomolecular Screening 4:67-73) using the standard deviations and mean values of the positive and negative controls. Z′=1−(3*Stdevneg+3*Stdevpos)/(Meanpos−Meanneg)
(§8) Only data where the Z′ value was >0.5 was used.

[9] = target: T1, VEGF-R2 (Homo sapiens, UniProt P35968); experiment: VEGF-R2 kinase assay, 33P-ATP incorporation, residual activity; format: biochemical; design: key: % residual kinase activity (100% = no inhibitor)
T1 construct: made in house
T1 sequence (P35968 20-1356): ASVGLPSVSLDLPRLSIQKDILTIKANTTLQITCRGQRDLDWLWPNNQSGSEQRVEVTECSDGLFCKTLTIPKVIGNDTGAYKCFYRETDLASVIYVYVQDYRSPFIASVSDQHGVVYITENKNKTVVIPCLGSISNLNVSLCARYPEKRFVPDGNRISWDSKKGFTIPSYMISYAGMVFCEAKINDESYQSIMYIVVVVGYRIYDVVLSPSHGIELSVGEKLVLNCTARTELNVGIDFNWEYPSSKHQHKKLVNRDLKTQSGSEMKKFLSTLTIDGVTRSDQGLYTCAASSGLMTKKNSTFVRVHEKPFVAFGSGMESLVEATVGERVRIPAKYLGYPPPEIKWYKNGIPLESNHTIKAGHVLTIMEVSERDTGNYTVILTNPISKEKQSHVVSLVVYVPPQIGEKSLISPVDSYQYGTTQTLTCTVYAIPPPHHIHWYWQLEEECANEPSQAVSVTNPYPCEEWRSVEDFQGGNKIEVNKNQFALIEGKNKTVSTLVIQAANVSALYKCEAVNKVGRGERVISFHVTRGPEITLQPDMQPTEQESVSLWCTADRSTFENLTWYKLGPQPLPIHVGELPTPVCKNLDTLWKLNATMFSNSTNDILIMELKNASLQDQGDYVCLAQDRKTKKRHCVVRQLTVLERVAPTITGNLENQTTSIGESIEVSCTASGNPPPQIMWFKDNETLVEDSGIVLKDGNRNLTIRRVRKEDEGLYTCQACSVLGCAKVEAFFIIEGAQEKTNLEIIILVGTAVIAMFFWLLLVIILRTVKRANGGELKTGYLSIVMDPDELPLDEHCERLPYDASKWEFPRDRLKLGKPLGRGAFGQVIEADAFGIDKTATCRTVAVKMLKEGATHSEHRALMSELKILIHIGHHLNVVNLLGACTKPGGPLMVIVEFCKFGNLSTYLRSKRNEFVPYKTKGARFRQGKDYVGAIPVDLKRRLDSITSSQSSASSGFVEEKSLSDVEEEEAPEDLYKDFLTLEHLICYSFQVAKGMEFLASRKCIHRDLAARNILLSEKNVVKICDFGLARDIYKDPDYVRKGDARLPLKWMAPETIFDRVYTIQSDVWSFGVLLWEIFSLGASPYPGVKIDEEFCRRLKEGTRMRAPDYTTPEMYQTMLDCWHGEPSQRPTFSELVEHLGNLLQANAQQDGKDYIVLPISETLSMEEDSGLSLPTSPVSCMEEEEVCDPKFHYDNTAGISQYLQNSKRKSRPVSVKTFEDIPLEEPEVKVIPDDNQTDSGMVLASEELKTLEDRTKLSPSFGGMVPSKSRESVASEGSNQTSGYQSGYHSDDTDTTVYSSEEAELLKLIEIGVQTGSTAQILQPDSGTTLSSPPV
Method: as §1, §2, §3, §4, §5, §6, §7, §8

[10] = target: T2, KIT (Homo sapiens, UniProt P10721); experiment: KIT kinase assay, 33P-ATP incorporation, residual activity; format: biochemical
T2 construct: made in house
Method: as §1, §2, §3, §4, §5, §6, §7, §8

[11] = target: ABL (Homo sapiens, UniProt P00519); experiment: ABL kinase assay, 33P-ATP incorporation, residual activity; format: biochemical; details: tested at 25 micromolar
ABL, sequence (P00519 whole entry, species assumed): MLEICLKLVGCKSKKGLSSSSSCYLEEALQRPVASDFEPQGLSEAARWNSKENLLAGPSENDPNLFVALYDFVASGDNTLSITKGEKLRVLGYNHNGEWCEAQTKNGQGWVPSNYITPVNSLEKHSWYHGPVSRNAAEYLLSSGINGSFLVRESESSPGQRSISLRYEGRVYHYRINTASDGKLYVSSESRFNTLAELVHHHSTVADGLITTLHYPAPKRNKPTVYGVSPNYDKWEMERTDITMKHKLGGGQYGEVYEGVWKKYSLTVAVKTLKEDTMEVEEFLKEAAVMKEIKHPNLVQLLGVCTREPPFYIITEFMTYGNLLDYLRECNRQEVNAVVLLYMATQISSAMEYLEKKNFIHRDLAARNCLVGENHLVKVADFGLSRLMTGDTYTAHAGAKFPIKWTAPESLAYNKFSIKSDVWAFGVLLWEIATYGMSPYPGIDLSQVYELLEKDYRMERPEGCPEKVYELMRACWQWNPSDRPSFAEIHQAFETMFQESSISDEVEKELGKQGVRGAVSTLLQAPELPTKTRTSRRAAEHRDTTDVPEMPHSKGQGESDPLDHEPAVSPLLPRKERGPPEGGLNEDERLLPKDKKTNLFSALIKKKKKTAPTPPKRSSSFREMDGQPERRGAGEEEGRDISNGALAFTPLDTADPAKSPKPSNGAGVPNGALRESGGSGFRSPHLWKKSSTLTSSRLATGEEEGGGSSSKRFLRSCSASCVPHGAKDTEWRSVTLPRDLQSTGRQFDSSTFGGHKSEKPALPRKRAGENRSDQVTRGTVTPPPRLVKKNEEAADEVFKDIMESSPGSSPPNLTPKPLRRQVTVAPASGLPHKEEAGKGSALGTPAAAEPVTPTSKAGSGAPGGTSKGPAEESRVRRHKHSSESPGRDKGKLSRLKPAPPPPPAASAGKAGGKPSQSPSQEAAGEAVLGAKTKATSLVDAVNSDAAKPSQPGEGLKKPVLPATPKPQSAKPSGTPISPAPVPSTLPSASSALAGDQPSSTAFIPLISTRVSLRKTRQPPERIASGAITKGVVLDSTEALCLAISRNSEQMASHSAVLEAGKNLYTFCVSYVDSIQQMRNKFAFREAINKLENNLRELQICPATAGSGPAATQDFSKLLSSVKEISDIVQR
Method: as §1, §2, §3, §4, §5, §6, §7, §8

[12] = target: T3, MET (Homo sapiens, UniProt P08581); experiment: MET kinase assay, 33P-ATP incorporation, residual activity; format: biochemical; design: key: % residual kinase activity (100% = no inhibitor); details: tested at 25 micromolar
T3 construct: made in house
Method: as §1, §2, §3, §4, §5, §6, §7, §8

[13] = target: T4, TIE2 (Homo sapiens, UniProt Q02763); experiment: TIE2 kinase assay, 33P-ATP incorporation, residual activity; format: biochemical
T4 construct: made in house
Method: as §1, §2, §3, §4, §5, §6, §7, §8

[14] = target: T5, PDGF-Ralpha (Homo sapiens, UniProt P16234); experiment: PDGF-Ralpha kinase assay, 33P-ATP incorporation, residual activity; format: biochemical; details: tested at 25 micromolar
T5 construct: made in house
T5 sequence (P16234 24-1089, species assumed): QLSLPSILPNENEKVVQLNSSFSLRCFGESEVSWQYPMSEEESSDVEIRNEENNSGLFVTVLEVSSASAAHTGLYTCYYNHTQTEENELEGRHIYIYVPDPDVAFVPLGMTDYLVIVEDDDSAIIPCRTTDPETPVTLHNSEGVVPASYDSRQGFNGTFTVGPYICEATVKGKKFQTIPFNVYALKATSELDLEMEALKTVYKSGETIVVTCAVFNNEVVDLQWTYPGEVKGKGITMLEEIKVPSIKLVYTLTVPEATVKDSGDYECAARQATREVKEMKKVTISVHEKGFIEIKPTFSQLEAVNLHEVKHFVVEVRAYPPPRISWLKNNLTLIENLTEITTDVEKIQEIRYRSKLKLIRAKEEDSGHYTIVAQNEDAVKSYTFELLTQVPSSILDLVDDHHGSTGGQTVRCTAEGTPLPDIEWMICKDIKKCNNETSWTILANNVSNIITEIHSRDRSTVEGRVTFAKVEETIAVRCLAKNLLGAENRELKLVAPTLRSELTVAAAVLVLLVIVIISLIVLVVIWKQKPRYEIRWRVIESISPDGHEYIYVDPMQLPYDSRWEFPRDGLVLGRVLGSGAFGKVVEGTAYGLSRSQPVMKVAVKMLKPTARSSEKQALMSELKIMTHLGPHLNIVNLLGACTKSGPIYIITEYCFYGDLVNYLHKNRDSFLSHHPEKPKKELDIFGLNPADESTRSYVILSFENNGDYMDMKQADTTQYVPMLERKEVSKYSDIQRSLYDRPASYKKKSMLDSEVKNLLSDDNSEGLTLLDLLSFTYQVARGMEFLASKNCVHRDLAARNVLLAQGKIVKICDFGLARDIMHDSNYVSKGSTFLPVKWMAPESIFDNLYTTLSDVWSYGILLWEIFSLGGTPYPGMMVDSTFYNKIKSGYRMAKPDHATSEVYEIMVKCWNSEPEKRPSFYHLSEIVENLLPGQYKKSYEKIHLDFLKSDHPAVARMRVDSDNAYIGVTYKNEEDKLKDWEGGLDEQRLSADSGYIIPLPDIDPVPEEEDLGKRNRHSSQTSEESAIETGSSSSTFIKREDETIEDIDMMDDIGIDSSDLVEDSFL
Method: as §1, §2, §3, §4, §5, §6, §7, §8

[15] = target: PKC-beta1 (Homo sapiens, UniProt P05771); experiment: PKC-beta1 kinase assay, 33P-ATP incorporation, residual activity; format: biochemical; details: tested at 25 micromolar
PKC-beta1, sequence (P05771 whole entry): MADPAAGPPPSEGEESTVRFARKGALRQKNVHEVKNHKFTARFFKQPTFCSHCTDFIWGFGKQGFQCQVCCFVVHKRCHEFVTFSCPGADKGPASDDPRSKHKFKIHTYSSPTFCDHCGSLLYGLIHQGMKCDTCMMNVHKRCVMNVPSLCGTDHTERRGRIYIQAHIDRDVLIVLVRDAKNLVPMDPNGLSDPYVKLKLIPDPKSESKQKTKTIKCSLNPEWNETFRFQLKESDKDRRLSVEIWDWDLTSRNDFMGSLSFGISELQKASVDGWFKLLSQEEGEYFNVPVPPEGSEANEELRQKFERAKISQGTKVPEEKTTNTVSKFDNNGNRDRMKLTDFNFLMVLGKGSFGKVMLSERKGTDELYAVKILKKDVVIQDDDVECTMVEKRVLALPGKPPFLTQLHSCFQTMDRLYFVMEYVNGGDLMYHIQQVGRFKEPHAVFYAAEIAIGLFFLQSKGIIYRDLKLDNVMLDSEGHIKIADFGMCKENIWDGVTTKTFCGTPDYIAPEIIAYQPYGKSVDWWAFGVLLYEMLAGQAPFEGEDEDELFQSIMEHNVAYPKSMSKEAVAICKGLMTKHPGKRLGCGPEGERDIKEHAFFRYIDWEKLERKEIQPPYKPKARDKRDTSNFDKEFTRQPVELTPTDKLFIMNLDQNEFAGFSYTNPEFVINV
Method: as §1, §2, §3
The assay for the PKCs contained 60 mM HEPES-NaOH, pH 7.5, 1 mM EDTA, 1.25 mM EGTA, 5 mM MgCl2, 1.32 mM CaCl2, 5 μg/ml Phosphatidylserine, 1 μg/ml 1.2 Dioleyl-glycerol, 1.2 mM DTT, 50 μg/ml PEG20000, 0.1 μM [γ-^33P]-ATP (approx. 5×10^5 cpm per well).
as §5, §6, §7, §8

[16] = target: CDK2/CycA (Homo sapiens, UniProt P24941); experiment: CDK2/CycA kinase assay, 33P-ATP incorporation, residual activity; format: biochemical; details: tested at 25 micromolar
Method: as §1, §2, §3, §4, §5, §6, §7, §8

[17] = target: mitogen-activated protein kinase p38α (Homo sapiens, UniProt Q16539); experiment: p38α assay, NanoCarrier 2080 format, fluorescence polarization (2D-FIDA anisotropy); format: biochemical
mitogen-activated protein kinase p38α, sequence (Q16539 whole entry, species assumed): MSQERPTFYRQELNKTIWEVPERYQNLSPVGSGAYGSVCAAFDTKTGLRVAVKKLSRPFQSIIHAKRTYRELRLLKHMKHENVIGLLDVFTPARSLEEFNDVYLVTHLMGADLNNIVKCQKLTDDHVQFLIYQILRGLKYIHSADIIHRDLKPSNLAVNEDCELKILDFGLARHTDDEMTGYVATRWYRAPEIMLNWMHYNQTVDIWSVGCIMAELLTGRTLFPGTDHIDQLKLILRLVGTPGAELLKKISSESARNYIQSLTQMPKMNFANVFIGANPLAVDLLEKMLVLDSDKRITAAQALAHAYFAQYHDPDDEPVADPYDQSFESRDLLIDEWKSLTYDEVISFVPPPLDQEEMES
Method: as §1, §2
The mitogen-activated protein kinase p38α assays were done in a proprietary microassay NanoCarrier™ 2080 format. In these assays phosphorylation was detected by a phospho-substrate specific monoclonal antibody in an indirect competition assay. The degree of binding of the antibody to the phospho-substrate was measured by fluorescence polarization using 2D-FIDA anisotrophy. In these experiments the final concentration of the enzyme was 1.6 nM and the substrate was 2 μM.
as §6, §7, §8

[18] = target: GSK3β (Homo sapiens, UniProt P49841); details: inhibitor concentration 1 μM; cited from earlier work
[19] = target: MAPKAPK1b (Homo sapiens, UniProt P51812); details: inhibitor concentration 1 μM; cited from earlier work
[20] = target: PKCα (Homo sapiens, UniProt P17252); details: inhibitor concentration 1 μM; cited from earlier work
[21] = compounds marked !: tested at 2.5 micromolar

EGF-R [8] | VEGF ([9]; tested at 25 micromolar) | c-Kit ([10]; tested at 25 micromolar) | ABL [11] | MET [12] | Tie2 ([13]; tested at 25 micromolar) | PDGFalpha [14] | PKC [15] | CDK2 [16] | Compound | other results
– | – | – | – | – | – | – | – | – | O=S(=O)(c1cccc2cnccc12)N1CCCNCC1 [HA1077] | residual activity MSK1 ([1]; inhibitor concentration 20 μM): 19%; residual activity PRK2 [2]: 15%; residual activity S6K1 ([3]; inhibitor concentration 20 μM): 32%
– | – | – | – | – | – | – | – | – | CC(C)(C)n1nc(-c2ccc(Cl)cc2)c2c(N)ncnc21 [PP2] | residual activity CDK2 [4]: 3%; residual activity CK1 [5]: 6%; residual activity MKK1 [6]: 55%; residual activity SAPK2a [7]: 21%
69 | 58 | 52 | 109 | 88 | 42 | 106 | 80 | 70 | Cc1cccc(CSc2nc3cc(C(N)=O)ccc3n2C[C@H]2O[C@@H](n3cnc4c(N)ncnc43)[C@H](O)[C@@H]2O)c1 [compound 100] | –
94 | 101 | 53 | 115 | 78 | 71 | 127 | 142 | 270 | CCCCCCCCSc1nc2cc(C(N)=O)ccc2n1C[C@H]1O[C@@H](n2nnc(C(N)=O)c2-c2ccccc2)[C@H](O)[C@@H]1O [compound 146] | –
23 | 10 | 12 | 41 | 46 | 1 | 38 | 26 | 25 | Nc1ncnc2c1ncn2[C@@H]1O[C@H](CN2C(=O)C(Cc3ccccc3)N(Cc3ccccc3[N+](=O)[O-])C2=O)[C@@H](O)[C@H]1O (some centres unmarked) [compound 212] | –
22 | 11 | 109 | 24 | 31 | 0 | 17 | 10 | 40 | Nc1ncnc2c1ncn2[C@@H]1O[C@H](CN2C(=O)C(Cc3ccccc3)N(Cc3cccn3S(=O)(=O)c3ccccc3)C2=O)[C@@H](O)[C@H]1O (some centres unmarked) [compound 223] | –
15 | 8 | 6 | 30 | 27 | −1 | 28 | 13 | 26 | CCn1c2ccccc2c2ccc(CN3C(=O)N(C[C@H]4O[C@@H](n5nnc(C(N)=O)c5-c5ccccc5)[C@H](O)[C@@H]4O)C(=O)C3Cc3ccccc3)cc21 (some centres unmarked) [compound 246] | –
66 | 31 | 17 | 6 | 72 | 12 | 85 | 80 | 20 | CCCCCCCCOc1ccc(-c2nc3cc(C(N)=O)ccc3n2C[C@H]2O[C@@H](n3nnc(C(N)=O)c3-c3ccccc3)[C@H](O)[C@@H]2O)cc1 [compound 279] | –
58 | 54 | 40 | 74 | 87 | 41 | 82 | 65 | 67 | CCCc1c(C(N)=O)nnn1[C@@H]1O[C@H](CNCc2nc3cc(C(N)=O)ccc3n2-c2ccc(-c3ccccc3)cc2)[C@@H](O)[C@H]1O [compound 345] | –
96 | 96 | 92 | 107 | 103 | 91 | 113 | 104 | 28 | CCCc1c(C(N)=O)nnn1[C@@H]1O[C@H](Cn2c(-c3ccc(F)c(C(F)(F)F)c3)nc3cc(C(N)=O)ccc32)[C@@H](O)[C@H]1O [compound 456] | –
27 | 18 | 13 | 49 | 46 | 3 | 46 | 50 | 30 | Nc1ncnc2c1ncn2[C@@H]1O[C@H](CN2C(=O)C(Cc3ccccc3)N(Cc3ccccc3Sc3ccc(Cl)cc3)C2=O)[C@@H](O)[C@H]1O (some centres unmarked) [compound 604] | P38 ([17]; tested at 25 micromolar): 100
20 | 14 | 18 | 55 | 54 | 5 | 56 | 27 | 26 | Nc1ncnc2c1ncn2[C@@H]1O[C@H](CN2C(=O)C(Cc3ccccc3)N(Cc3cccs3)C2=O)[C@@H](O)[C@H]1O (some centres unmarked) [compound 605] | P38 ([17]; tested at 25 micromolar): 100
– | – | – | – | – | – | – | – | – | NC(=O)c1nnn([C@@H]2O[C@H](Cn3c(-c4ccc(OCc5ccccc5)cc4)nc4cc(Cl)c(Cl)cc43)[C@@H](O)[C@H]2O)c1-c1ccccc1 [compound 668] | c-Kit [10, 21]: 16; Tie2 [13, 21]: 1
– | – | – | – | – | – | – | – | – | NC(=O)c1nnn([C@@H]2O[C@H](Cn3c(-c4ccc(OCc5ccccc5)cc4)nc4cc(Cl)c(Cl)cc43)[C@@H](O)[C@H]2O)c1-c1ccc(Cl)cc1 [compound 669] | VEGF [9, 21]: 34; c-Kit [10, 21]: 11; Tie2 [13, 21]: 1; P38 [17, 21]: 97
– | – | – | – | – | – | – | – | – | COc1ccc(-c2c(C(N)=O)nnn2[C@@H]2O[C@H](Cn3c(-c4ccc(OCc5ccccc5)cc4)nc4cc(Cl)c(Cl)cc43)[C@@H](O)[C@H]2O)cc1 [compound 670] | VEGF [9, 21]: 23; c-Kit [10, 21]: 9; Tie2 [13, 21]: 1
– | – | – | – | – | – | – | – | – | CCCCCCCCOc1ccc(-c2nc3c(NC)ncnc3n2C[C@H]2O[C@@H](n3nnc(C(N)=O)c3-c3ccccc3)[C@H](O)[C@@H]2O)cc1 [compound 725] | c-Kit [10, 21]: 6; Tie2 [13, 21]: 10
88 | 44 | 38 | 96 | 88 | 72 | 96 | 96 | 119 | Nc1ncnc2c1ncn2[C@@H]1O[C@H](Cn2c(-c3ccc(OCc4ccccc4)cc3)nc3ccccc32)[C@@H](O)[C@H]1O [compound 912] | P38 ([17]; tested at 25 micromolar): 70
– | – | – | – | – | – | – | – | – | Ro-31-8220 | residual activity MSK1 ([1]; inhibitor concentration 1 μM): 2%; residual activity GSK3β [18]: 5%; residual activity S6K1 ([3]; inhibitor concentration 1 μM): 6%; residual activity MAPKAPK1b [19]: 2%; residual activity PKCα [20]: 3%
